{"source": "patent US20090075926A1", "about": "“METHOD FOR IDENTIFYING AND MANIPULATING CELLS” (priority 2006, published 2009)", "molecules": {"B1": {"name": "NM23-H2: recombinant NM23-H2 protein (protein, UniProt P22392 1-152, looked up)", "Nucleoside diphosphate kinase …": "MANLERTFIAIKPDGVQRGLVGEIIKRFEQKGFRLVAMKFLRASEEHLKQHYIDLKDRPFFPGLVKYMNSGPVVAMVWEGLNVVKTGRVMLGETNPADSKPGTIRGDFCIQVGRNIIHGSDSVKSAEKEISLWFKPEELVDYKSCAHDWVYE"}, "B2": {"name": "NM23-H3: recombinant NM23-H3 protein (protein, UniProt Q13232 1-169, looked up)", "Nucleoside diphosphate kinase …": "MICLVLTIFANLFPAACTGAHERTFLAVKPDGVQRRLVGEIVRRFERKGFKLVALKLVQASEELLREHYAELRERPFYGRLVKYMASGPVVAMVWQGLDVVRTSRALIGATNPADAPPGTIRGDFCIEVGKNLIHGSDSVESARREIALWFRADELLCWEDSAGHWLYE"}, "B3": {"name": "G-CSF: granulocyte colony stimulating factor (protein, UniProt P09919 31-207, looked up)", "Granulocyte …": "TPLGPASSLPQSFLLKCLEQVRKIQGDGAALQEKLVSECATYKLCHPEELVLLGHSLGIPWAPLSSCPSQALQLAGCLSQLHSGLFLYQGLLQALEGISPELGPTLDTLQLDVADFATTIWQQMEELGMAPALQPTQGAMPAFASAFQRRAGGVLVASHLQSFLEVSYRVLRHLAQP"}}, "key": {"[1]": {"test_system": "ERK2 phosphorylation (MAP kinase pathway) via PSMGFR region of MUC1", "assay": "western blot of ERK2 phosphorylation upon MUC1* dimerization and small molecule competition", "format": "cell-based", "conditions": "competitor small molecule present with anti-PSMGFR", "source_text": "FIG. 6 is a western blot of a competition experiment in which small molecules that bind to the PSMGFR region of MUC1 compete with anti-PSMGFR for binding to the site. […] The chemical formula for the competitor compound MN 9 referred to in this figure is\nThe western blot probe antibody is phospho-ERK2. FIG. 6 is a western blot of a competition experiment in which small molecules that bind to the PSMGFR region of MUC1 compete with anti-PSMGFR for binding to the site."}, "[2]": {"test_system": "H9 human embryonic stem cells", "assay": "human embryonic stem cell growth / live-dead assay on matrigel", "format": "cell-based", "conditions": "for live stem cells when free peptide is added to monovalent anti-MUC1*: monovalent anti-MUC1* plus free MUC1* peptide vs no peptide", "protocol": "The details are that H9 low passage number hESCs were grown over matrigel for 7 days. To one set of wells was added bivalent anti-PSMGFR; to a second set was added the monovalent anti-PSMGFR; and to a third set buffer was added as a control. The results were that the addition of monovalent anti-PSMGFR caused stem cells to die within 8 hours. Cells immediately rounded up and within hours floated to the top of the media. […] Colonies were larger and in general had less differentiated cells.\nBased on the findings that MUC1* mediates growth in cancer cells, experiments were devised to show whether or not stem cell growth could be manipulated by altering the dimerization state of MUC1*. A set number of human embryonic stem cells, H9p55, were plated onto matrigel. Cells were treated with either: 1) the bivalent anti-MUC1* antibody (rabbit polyclonal antibody raised the PSMGFR sequence), which dimerizes the MUC1* portion of the receptor; 2) the monovalent form of this same antibody, which binds to a single MUC1* receptor and prevents dimerization; or 3) nothing added as a control. The most striking result was that nearly all the cells, to which the monovalent anti-MUC1* antibody was added, died within 8 hours of the treatment, see FIGS. 25 and 26. […] A complete reversal of the monovalent antibody induced cell death was not expected since the free peptide could also compete with the cell surface MUC1* receptor for binding to the activating ligand. […] Therefore, the experiment was repeated but the analysis was done in a manner that resultant cell numbers could be quantitated.\nA given number of cells H9p55 were added to each well. Again, the cells were treated with either bivalent anti-MUC1*, monovalent anti-MUC1* or no antibody as a control and then counted on a cell counting instrument. The graph of FIG. 32 summarizes the results. Again, treatment with the monovalent anti-MUC1* antibody caused cell death within 8 hours. […] The graph of FIG. 33 gives the details of this experiment. […]"}, "[3]": {"test_system": "hematopoietic stem cells (CD34++CD38−)", "conditions": "recombinant protein added; cited from earlier work"}, "[4]": {"test_system": "hematopoietic progenitor cells (CD34+CD38+)", "conditions": "recombinant protein added; cited from earlier work"}, "[5]": {"test_system": "HEL cells", "conditions": "recombinant human protein as GST fusion; cited from earlier work"}, "[6]": {"target": "T1, PSMGFR (MUC1*) peptide (Homo sapiens, UniProt P15941)", "T1 sequence (P15941 1110-1154 limits assumed)": "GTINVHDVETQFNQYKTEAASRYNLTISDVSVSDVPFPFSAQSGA", "assay": "immunoprecipitation with histidine-tagged PSMGFR (MUC1*) peptide and western blot with anti-NM23", "format": "binding", "conditions": "T47D cancer cell extracts", "protocol": "NM23 is the ligand that dimerizes and activates the MUC1* growth factor receptor. T47D cancer cell extracts were immunoprecipitated with magnetic beads that were pre-bound with histidine-tagged PSMGFR (MUC1*) peptide. The captured MUC1* binding species were then separated by SDS-PAGE. A western blot was then performed by probing the gel with an antibody that recognized NM23 H1."}, "[7]": {"test_system": "MUC1*-positive cancer cells", "assay": "growth of MUC1*-positive cancer cells with NM23", "format": "cell-based"}, "[8]": {"test_system": "shed MUC1", "conditions": "breast cancer patients; cited from earlier work"}}, "data": [{"molecule": "O=C(c1ccc2ccccc2c1)N1CCc2c([nH]c3ccccc23)C1c1ccc(C(F)(F)F)cc1", "note": "(stereo not drawn) [Compound MN 9]", "values": [{"measurement": "ERK2 phosphorylation in competition with anti-PSMGFR", "setting": "[1]", "result": "ERK2 phosphorylation is inhibited"}]}, {"molecule": "MUC1* peptide: free peptide of the MUC1* (PSMGFR) extracellular sequence, competes with cell surface MUC1* (GTINVHDVETQFNQYKTEAASRYNLTISDVSVSDVPFPFSAQSGA; Fragment of MUC1 Growth Factor Receptor)", "values": [{"measurement": "stem cell count on addition of MUC1* peptide", "setting": "[2]; bFGF added, with or without bivalent anti-MUC1*", "result": "drop in the cell count"}, {"measurement": "live stem cells when free peptide is added to monovalent anti-MUC1*", "setting": "[2]", "result": "more live cells"}, {"measurement": "live stem cells when free peptide is added to monovalent anti-MUC1*", "setting": "[2]; listed as MUC1* free peptide", "result": "increase in the number of live cells"}]}, {"molecule": "NM23-H1: recombinant NM23-H1 protein", "values": [{"measurement": "growth of hematopoietic stem cells", "setting": "[3]", "result": "did not induce growth"}, {"measurement": "differentiation into granulocyte, macrophage, or granulocyte-macrophage colonies", "setting": "[4]", "result": "reduced the differentiation"}, {"measurement": "erythroid differentiation of HEL cells by TGF-β1", "setting": "[5]", "result": "block erythroid differentiation"}]}, {"molecule": "NM23: natural ligand that dimerizes and activates the MUC1* growth factor receptor", "values": [{"measurement": "binding to MUC1* peptide (immunoprecipitated species reacts with anti-NM23)", "setting": "[6]", "result": "ligand to MUC1"}, {"measurement": "growth of MUC1*-positive cancer cells", "setting": "[7]", "result": "stimulate the growth"}]}, {"molecule": "B1", "values": [{"measurement": "growth of hematopoietic stem cells", "setting": "[3]", "result": "did not induce growth"}, {"measurement": "differentiation into granulocyte, macrophage, or granulocyte-macrophage colonies", "setting": "[4]", "result": "reduced the differentiation"}, {"measurement": "erythroid differentiation of HEL cells by TGF-β1", "setting": "[5]", "result": "block erythroid differentiation"}]}, {"molecule": "B2", "values": [{"measurement": "growth of hematopoietic stem cells", "setting": "[3]", "result": "did not induce growth"}, {"measurement": "differentiation into granulocyte, macrophage, or granulocyte-macrophage colonies", "setting": "[4]", "result": "reduced the differentiation"}]}, {"molecule": "B3", "values": [{"measurement": "serum levels of shed MUC1", "setting": "[8]", "result": "greatly increased"}]}]}
